Experiments:
[1] = Inhibition of pig heart MDH using […] as substrate; design: species or system Sus scrofa
E. coli GroEL/ES [2] = molecular target: T1, E. coli GroEL/ES (Escherichia coli, UniProt P0A6F5); assay: Inhibition of Escherichia coli GroEL/GroES expressed in Escherichia coli DH5alpha/BL21 (DE3) assessed as inhibition of denatured MDH refolding preincubated for 10 mins followed by ATP addition measured after 2 hrs by fluorescence based assay
E. coli GroEL/ES [3] = molecular target: T1, E. coli GroEL/ES; assay: Inhibition of Escherichia coli GroEL/GroES-ATPase activity expressed in Escherichia coli DH5alpha/BL21 (DE3) assessed as inhibition of denatured MDH refolding preincubated for 10 mins followed by ATP addition measured after 2 hrs by fluorescence based assay

T1 sequence (P0A6F5 whole entry, looked up): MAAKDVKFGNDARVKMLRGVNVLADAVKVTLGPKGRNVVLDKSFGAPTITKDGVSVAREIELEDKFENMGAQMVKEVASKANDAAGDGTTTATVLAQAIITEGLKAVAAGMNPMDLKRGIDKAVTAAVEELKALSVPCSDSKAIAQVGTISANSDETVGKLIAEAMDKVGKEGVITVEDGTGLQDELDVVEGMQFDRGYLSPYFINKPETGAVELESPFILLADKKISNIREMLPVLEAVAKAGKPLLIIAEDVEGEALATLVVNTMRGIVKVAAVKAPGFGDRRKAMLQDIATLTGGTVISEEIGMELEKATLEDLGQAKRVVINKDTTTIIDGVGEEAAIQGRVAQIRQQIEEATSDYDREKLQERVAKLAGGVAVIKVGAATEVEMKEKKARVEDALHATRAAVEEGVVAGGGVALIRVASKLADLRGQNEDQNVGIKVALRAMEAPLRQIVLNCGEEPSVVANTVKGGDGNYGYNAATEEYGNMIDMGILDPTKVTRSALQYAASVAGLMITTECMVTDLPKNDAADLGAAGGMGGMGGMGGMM

SMILES	IC50 [1]	IC50 (E. coli GroEL/ES [2])	IC50 (E. coli GroEL/ES [3])
O=C1NC(=S)N(c2ccc(F)cc2)C(=O)/C1=C/c1ccco1	20 µM	1.2 µM	25 µM
O=C(NCCO)Nc1ccc2nc(-c3ccco3)c(-c3ccco3)nc2c1	> 62.5 µM	23 µM	> 250 µM
O=C(Nc1ccc2nc(-c3ccco3)c(-c3ccco3)nc2c1)N1CCCC1	> 62.5 µM	14 µM	> 250 µM
O=C(Nc1ccc(Sc2nc3ccccc3s2)c(Cl)c1)c1cc(Br)cc(Br)c1O	5.5 µM	1.7 µM	13 µM
CNC(=O)Nc1ccc2nc(-c3ccco3)c(-c3ccco3)nc2c1	> 62.5 µM	5.4 µM	> 250 µM
Oc1ccc(NCn2nnc3ccccc32)cc1	> 62.5 µM	55 µM	130 µM
Cc1ccc(C)n1-c1ccc(O)c(C(=O)O)c1	> 62.5 µM	0.62 µM	> 250 µM
O=c1/c(=C/c2ccc(O)c(O)c2)sc2nc3ccccc3n12	> 62.5 µM	1.3 µM	9.8 µM
Nc1ccc(Nc2nc(-c3ccc(O)c(O)c3)cs2)cc1	> 62.5 µM	5.9 µM	23 µM
Cc1ccc(S(=O)(=O)Nc2ccc(-c3nc4ccc(NS(=O)(=O)c5ccc(C)cc5)cc4[nH]3)cc2)cc1	> 62.5 µM	0.11 µM	0.06 µM
O=C(O)c1ccc(-c2nc(-c3ccc(-c4ccc(-c5nc(-c6ccc(C(=O)O)cc6)[nH]c5-c5ccccc5)cc4)cc3)c(-c3ccccc3)[nH]2)cc1	57 µM	0.44 µM	25 µM
O=C1NC(=S)N(Cc2ccco2)C(=O)/C1=C\c1ccc(-c2ccc([N+](=O)[O-])cc2)o1	19 µM	0.7 µM	150 µM
O=C1/C(=C/c2ccc(O)c(O)c2)SC(=S)N1c1ccc(O)cc1	> 62.5 µM	0.99 µM	3.3 µM
O=C(/C=C/c1cccc([N+](=O)[O-])c1)c1ccc(NC(=O)c2ccco2)cc1	> 62.5 µM	1.8 µM	> 250 µM
O=C(/C=C/c1ccc([N+](=O)[O-])cc1)c1ccc(O)c(O)c1	> 62.5 µM	2.4 µM	71 µM
O=C(O)c1cccc2c1NC(c1cccc(Br)c1)C1CC=CC21 (stereo not given)	50 µM	2.7 µM	44 µM
O=C(O)C1Nc2ccc(Cl)cc2C2C=CCC12 (stereo not given)	> 62.5 µM	2.7 µM	68 µM
CN(C)c1ccc(/C=C2/C(=O)NC(=S)N(Cc3ccco3)C2=O)cc1	> 62.5 µM	5.9 µM	169 µM

SMILES	IC50 [1]	IC50 (E. coli GroEL/ES [2])	IC50 (E. coli GroEL/ES [3])
Cc1ccc(/C=C2/SC(=S)N(c3ccc(C(=O)O)c(O)c3)C2=O)o1	> 62.5 µM	6.1 µM	48 µM
Cn1c(=O)c(C(=O)Nc2ccncc2)c(O)c2ccccc21	> 62.5 µM	7.3 µM	> 250 µM
COC(=O)c1ccc(-c2ccc(/C=C3/SC(=S)NC3=O)o2)cc1	> 62.5 µM	8.4 µM	131 µM
O=c1c([N+](=O)[O-])c(Cl)c2ccccc2n1Cc1ccccc1	> 62.5 µM	8.8 µM	> 250 µM
O=C(O)c1cccc2c1NC(c1ccccc1F)C1CC=CC21 (stereo not given)	> 62.5 µM	9.1 µM	95 µM
O=c1[nH]nc2cc(O)c3ccccc3n12	> 62.5 µM	11 µM	> 250 µM
O=C(/C=C/c1ccco1)c1ccc(NC(=O)c2cccs2)cc1	> 62.5 µM	17 µM	157 µM
CCOc1ccc(N2C(=O)NC(=O)/C(=C/c3ccc(O)c(O)c3)C2=O)cc1	> 62.5 µM	24 µM	217 µM
COc1cccc(/C=C2/SC(=S)N(CCC(=O)Nc3ccc(O)cc3)C2=O)c1	> 62.5 µM	33 µM	> 250 µM
CNC(=O)Oc1c(Br)cc2sc(=O)oc2c1Br	> 62.5 µM	35 µM	236 µM
O=C(Nc1cc([N+](=O)[O-])ccc1O)c1ccc2c(c1)C(=O)N(Cc1ccccc1)C2=O	> 62.5 µM	52 µM	> 250 µM
COc1ccc(C(=O)N/N=C/c2ccc(O)c3ncccc23)cc1	> 62.5 µM	70 µM	> 250 µM
O=C(CC1Nc2cccc3cccc(c23)NC1=O)Nc1cccc([N+](=O)[O-])c1 (stereo not given)	> 62.5 µM	97 µM	52 µM
CC(=O)c1cc2c(cc1NC(=O)c1ccccc1Br)OCCO2	> 62.5 µM	> 100 µM	> 250 µM
COc1cc(/C=C2/C(=N)N3N=C(CC(C)C)SC3=NC2=O)ccc1OC(=O)c1ccc(F)cc1	> 62.5 µM	> 100 µM	> 250 µM
Nc1nnc(SCC(=O)c2ccc(-c3ccccc3)cc2)s1	> 62.5 µM	> 100 µM	> 250 µM
Cc1ccc(-c2ccc(NC(=O)/C=C/c3ccco3)cc2)o1	> 62.5 µM	> 100 µM	> 250 µM
